Reference: publication PMC8985489 (Alzheimer's & Dementia : Translational Research & Clinical …, 2022)

What was measured:
biotinylated Aβ1-42 = biotinylated Aβ1-42 (Homo sapiens, UniProt P05067); experiment: Aβ anti-oligomerization assay; assay type: biochemical
Human Recombinant IDO-1 = Human Recombinant IDO-1 (Homo sapiens, UniProt P14902); experiment: HR-IDO-1 enzymatic inhibition assay; assay type: biochemical
[1] = target: INF-γ-induced IDO-1 activity (Homo sapiens, UniProt P14902); experiment: INF-γ-induced IDO-1 activity; assay type: cell-based
INF-γ-induced IDO-1 activity, sequence (P14902 whole entry): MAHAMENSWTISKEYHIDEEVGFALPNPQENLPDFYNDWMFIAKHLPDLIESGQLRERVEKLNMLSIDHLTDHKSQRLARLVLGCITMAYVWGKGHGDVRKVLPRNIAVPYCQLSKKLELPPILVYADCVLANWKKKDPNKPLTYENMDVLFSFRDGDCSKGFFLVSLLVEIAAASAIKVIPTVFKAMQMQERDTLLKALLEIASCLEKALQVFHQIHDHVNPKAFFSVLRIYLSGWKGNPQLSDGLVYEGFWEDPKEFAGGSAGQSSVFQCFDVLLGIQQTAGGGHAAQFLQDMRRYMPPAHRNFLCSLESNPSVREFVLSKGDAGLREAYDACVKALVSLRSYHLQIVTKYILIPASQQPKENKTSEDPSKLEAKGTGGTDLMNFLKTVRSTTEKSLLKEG

Aβ1-40 [2] = target: T1, Aβ1-40 (Homo sapiens, UniProt P05067); experiment: Thioflavin T; assay type: biochemical
T1 sequence (P05067 672-711 limits assumed): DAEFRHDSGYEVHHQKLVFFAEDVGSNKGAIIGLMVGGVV

Aβ1-40 [3] = target: T1, Aβ1-40; experiment: Circular dichroism; assay type: biochemical
[4] = test system: IL-1β production and release from microglia; experiment: IL-1β production and release from microglia; assay type: cell-based; conditions: at 50 and 100 μM
IDO-1 = conditions: cited from earlier work
[5] = test system: SK-N-AS neuroblastoma cells; experiment: Aβ production in mammalian cells; assay type: cell-based, human; conditions: SK-N-AS incubated with 1 μg/ml, within 3 h

biotinylated Aβ1-42, sequence (P05067 672-713): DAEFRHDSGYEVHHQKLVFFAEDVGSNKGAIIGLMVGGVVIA
Human Recombinant IDO-1, sequence (P14902 whole entry): as the sequence (P14902 whole entry) above

| Compound | Aβ anti-aggregant activity in ThT assay (Aβ1-40 [2]) | Aβ anti-aggregant activity in CD assay (Aβ1-40 [3]) | further results |
| --- | --- | --- | --- |
| COc1ccc2[nH]cc(/C=C/c3ccc(O)cc3)c2c1 [4b, (E)‐4‐(2‐[5‐methoxy‐1H‐indol‐3‐yl]vinyl)phenol] |  |  | IC50 (biotinylated Aβ1-42): 6.5 µM; IC50 (Human Recombinant IDO-1): 2.8 µM; IC50 [1]: 10.8 µM |
| O=C(O)/C=C/c1ccc(O)cc1 [4‐coumarate] | exhibited Aβ anti‐aggregant activities | exhibited Aβ anti‐aggregant activities |  |
| NCCc1c[nH]c2ccc(O)cc12 [5‐hydroxytryptamine] |  |  | IL-1β production and release from microglia [4]: modulated |
| O=C(O)/C=C/c1ccc(O)c(O)c1 [caffeiate] | exhibited Aβ anti‐aggregant activities | exhibited Aβ anti‐aggregant activities |  |
| COc1cc(/C=C/C(=O)O)ccc1O [ferulate] | exhibited Aβ anti‐aggregant activities | exhibited Aβ anti‐aggregant activities | IDO-1 enzymatic activity (IDO-1): shown to inhibit IDO‐1 enzymatic activity |
| Oc1ccc(/C=C/c2cc(O)cc(O)c2)cc1 [resveratrol] | exhibited Aβ anti‐aggregant activities | exhibited Aβ anti‐aggregant activities |  |
| O=C(O)c1ccccc1O [salicylate] | exhibited Aβ anti‐aggregant activities | exhibited Aβ anti‐aggregant activities |  |
| COc1cc(/C=C/C(=O)O)cc(OC)c1O [sinapate] | exhibited Aβ anti‐aggregant activities | exhibited Aβ anti‐aggregant activities |  |
| N[C@@H](Cc1c[nH]c2ccccc12)C(=O)O [tryptophan] |  |  | activity in initial screen against Aβ aggregation (biotinylated Aβ1-42; biotinylated Aβ1-42 anti-oligomerization screen): inactive; activity in initial screen against Aβ aggregation (Aβ1-40 [2]; kinetic ThT Aβ1-40 anti-aggregation screen): inactive |
| lipopolysaccharide [LPS] |  |  | Aβ concentrations in the cell lysate [5]: 800 pg/mL |
| lipoteichoic acid [LTA] |  |  | Aβ concentrations in the cell lysate [5]: 800 pg/mL |
| tannate | exhibited Aβ anti‐aggregant activities | exhibited Aβ anti‐aggregant activities |  |
